From patent US8952024B2, “Herbicidal pyrimidone derivatives” (E I du Pont de Nemours and Company, priority 2009, dated 2015)

Assays:
Assay type in all cases: in vivo
rice (Oryza sativa) = assay: Test B flooded paddy test; conditions: for Plant response rating, Flood, Rice: 250 g ai/ha, flooded paddy test, visual rating on 0 to 100 scale (0 no effect, 100 complete control) after 13 to 15 days; for Plant response rating, Rice: Flood (flooded paddy test), 13 to 15 days
How it was run: (§1)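 2-leaf seedlings; pots flooded 3 cm over soil at treatment; cpd dosed into floodwater, depth kept constant. Greenhouse 13–15 d. Visual rating vs untreated controls, 0 = no effect, 100 = complete control.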

[1] = test system: umbrella sedge (Cyperus difformis); assay: Test B flooded paddy test; conditions: for Plant response rating, Flood, Sedge, Umbrella: 250 g ai/ha, flooded paddy test, visual rating on 0 to 100 scale (0 no effect, 100 complete control) after 13 to 15 days; for Plant response rating, Sedge, Umbrella: Flood (flooded paddy test), 13 to 15 days
How it was run: as §1

[2] = test system: barnyardgrass (Echinochloa crus-galli); assay: Test B flooded paddy test; conditions: for Plant response rating, Flood, Barnyardgrass: 250 g ai/ha, flooded paddy test, visual rating on 0 to 100 scale (0 no effect, 100 complete control) after 13 to 15 days; for Plant response rating, Barnyardgrass: Flood (flooded paddy test), 13 to 15 days
How it was run: as §1

[3] = test system: ducksalad (Heteranthera limosa); assay: Test B flooded paddy test; conditions: for Plant response rating, Flood, Ducksalad: 250 g ai/ha, flooded paddy test, visual rating on 0 to 100 scale (0 no effect, 100 complete control) after 13 to 15 days; for Plant response rating, Ducksalad: Flood (flooded paddy test), 13 to 15 days
How it was run: as §1

[4] = test system: velvetleaf (Abutilon theophrasti); assay: Test A pre-/postemergence plant response; conditions: for Velvetleaf plant response rating: visual injury, 0 to 100 scale (0 no effect, 100 complete control), approx. ten days
How it was run: (§2)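 Visually rated 0–100 injury (100 = complete control) versus untreated plants, ~10 days in greenhouse. Application pre- (soil spray, loam/sand) and postemergence (2–10 cm, 1–2 leaf stage), same timepoint.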

[5] = test system: pigweed (Amaranthus retroflexus); assay: Test A pre-/postemergence plant response; conditions: for Pigweed plant response rating: visual injury, 0 to 100 scale (0 no effect, 100 complete control), approx. ten days
How it was run: as §2

[6] = test system: wheat (Triticum aestivum); assay: Test A pre-/postemergence plant response; conditions: for Wheat plant response rating: visual injury, 0 to 100 scale (0 no effect, 100 complete control), approx. ten days
How it was run: as §2

corn (Zea mays) = assay: Test A pre-/postemergence plant response; conditions: for Corn plant response rating: visual injury, 0 to 100 scale (0 no effect, 100 complete control), approx. ten days
How it was run: as §2

[7] = test system: large crabgrass (Digitaria sanguinalis); assay: Test A pre-/postemergence plant response; conditions: for Crabgrass, Large plant response rating: visual injury, 0 to 100 scale (0 no effect, 100 complete control), approx. ten days
How it was run: as §2

[8] = test system: morningglory (Ipomoea spp.); assay: Test A pre-/postemergence plant response; conditions: for Morningglory plant response rating: visual injury, 0 to 100 scale (0 no effect, 100 complete control), approx. ten days
How it was run: as §2

[9] = test system: giant foxtail (Setaria faberii); assay: Test A pre-/postemergence plant response; conditions: for Foxtail, Giant plant response rating: visual injury, 0 to 100 scale (0 no effect, 100 complete control), approx. ten days
How it was run: as §2

[10] = test system: barnyardgrass (Echinochloa crus-galli); assay: Test A pre-/postemergence plant response; conditions: for Barnyardgrass plant response rating: visual injury, 0 to 100 scale (0 no effect, 100 complete control), approx. ten days
How it was run: as §2

[11] = 62 g ai/ha, scale of 0 to 100 where 0 is no effect and 100 is complete control
[12] = 125 g ai/ha, scale 0 to 100, 0 is no effect, 100 is complete control
[13] = Flood, 31 g ai/ha, scale 0 to 100 (0 no effect, 100 complete control)
[14] = Postemergence, 125 g ai/ha, 0 to 100 scale where 0 is no effect and 100 is complete control
[15] = Preemergence, 125 g ai/ha, 0 to 100 scale, 0 = no effect, 100 = complete control
[16] = Preemergence, 500 g ai/ha, 0 to 100 scale, 0 = no effect, 100 = complete control

Cc1ccc(F)cc1-n1c(-c2cc(F)cc(F)c2)ncc(C(=O)C2=C(O)CCCC2=O)c1=O [Compound 183]
Plant response rating, Flood, Rice (rice (Oryza sativa)): 0 | Plant response rating, Rice (rice (Oryza sativa); [11]): 0 | Plant response rating, Rice (rice (Oryza sativa); [12]): 0 | Rice plant response rating (rice (Oryza sativa); [13]): 0 | Plant response rating, Flood, Sedge, Umbrella [1]: 90 | Plant response rating, Sedge, Umbrella [1, 11]: 50 | Plant response rating, Sedge, Umbrella [1, 12]: 65 | Sedge, Umbrella plant response rating [1, 13]: 0 | Plant response rating, Flood, Barnyardgrass [2]: 35 | Plant response rating, Barnyardgrass [2, 11]: 0 | Plant response rating, Barnyardgrass [2, 12]: 0 | Barnyardgrass plant response rating [2, 13]: 0 | Plant response rating, Flood, Ducksalad [3]: 95 | Plant response rating, Ducksalad [3, 11]: 65 | Plant response rating, Ducksalad [3, 12]: 80 | Ducksalad plant response rating [3, 13]: 30 | Plant response rating, Velvetleaf [4, 14]: 100 | Velvetleaf plant response rating ([4]; Postemergence, 500 g ai/ha): 100 | Plant response rating, Velvetleaf [4, 15]: 100 | Plant response rating, Velvetleaf [4, 16]: 100 | Plant response rating, Pigweed [5, 14]: 100 | Pigweed plant response rating ([5]; Postemergence, 500 g ai/ha): 100 | Plant response rating, Pigweed [5, 15]: 90 | Plant response rating, Pigweed [5, 16]: 100 | Plant response rating, Wheat [6, 14]: 50 | Wheat plant response rating ([6]; Postemergence, 500 g ai/ha): 80 | Plant response rating, Wheat [6, 15]: 0 | Plant response rating, Wheat [6, 16]: 50 | Plant response rating, Corn (corn (Zea mays); [14]): 10 | Corn plant response rating (corn (Zea mays); Postemergence, 500 g ai/ha): 80 | Plant response rating, Corn (corn (Zea mays); [15]): 0 | Plant response rating, Corn (corn (Zea mays); [16]): 0 | Plant response rating, Crabgrass, Large [7, 14]: 80 | Crabgrass, Large plant response rating ([7]; Postemergence, 500 g ai/ha): 100 | Plant response rating, Crabgrass, Large [7, 15]: 90 | Plant response rating, Crabgrass, Large [7, 16]: 100 | Plant response rating, Morningglory [8, 14]: 40 | Morningglory plant response rating ([8]; Postemergence, 500 g ai/ha): 70 | Plant response rating, Morningglory [8, 15]: 20 | Plant response rating, Morningglory [8, 16]: 50 | Plant response rating, Foxtail, Giant [9, 14]: 80 | Foxtail, Giant plant response rating ([9]; Postemergence, 500 g ai/ha): 100 | Plant response rating, Foxtail, Giant [9, 15]: 60 | Plant response rating, Foxtail, Giant [9, 16]: 90 | Plant response rating, Barnyardgrass [10, 14]: 60 | Barnyardgrass plant response rating ([10]; Postemergence, 500 g ai/ha): 90 | Plant response rating, Barnyardgrass [10, 15]: 20 | Plant response rating, Barnyardgrass [10, 16]: 100

O=C1CCCC(O)=C1C(=O)c1cnc(-c2ccco2)n(C2CCCCC2)c1=O [Compound 188]
Plant response rating, Flood, Rice (rice (Oryza sativa)): 15 | Plant response rating, Rice (rice (Oryza sativa); [11]): 0 | Plant response rating, Flood, Sedge, Umbrella [1]: 85 | Plant response rating, Sedge, Umbrella [1, 11]: 80 | Plant response rating, Flood, Barnyardgrass [2]: 0 | Plant response rating, Barnyardgrass [2, 11]: 0 | Plant response rating, Flood, Ducksalad [3]: 85 | Plant response rating, Ducksalad [3, 11]: 70 | Plant response rating, Velvetleaf [4, 14]: 100 | Velvetleaf plant response rating ([4]; Postemergence, 500 g ai/ha): 100 | Plant response rating, Velvetleaf [4, 15]: 70 | Plant response rating, Velvetleaf [4, 16]: 80 | Plant response rating, Pigweed [5, 14]: 90 | Pigweed plant response rating ([5]; Postemergence, 500 g ai/ha): 100 | Plant response rating, Pigweed [5, 15]: 60 | Plant response rating, Pigweed [5, 16]: 80 | Plant response rating, Wheat [6, 14]: 0 | Wheat plant response rating ([6]; Postemergence, 500 g ai/ha): 0 | Plant response rating, Wheat [6, 15]: 0 | Plant response rating, Wheat [6, 16]: 0 | Plant response rating, Corn (corn (Zea mays); [14]): 0 | Corn plant response rating (corn (Zea mays); Postemergence, 500 g ai/ha): 10 | Plant response rating, Corn (corn (Zea mays); [15]): 0 | Plant response rating, Corn (corn (Zea mays); [16]): 0 | Plant response rating, Crabgrass, Large [7, 14]: 80 | Crabgrass, Large plant response rating ([7]; Postemergence, 500 g ai/ha): 90 | Plant response rating, Crabgrass, Large [7, 15]: 30 | Plant response rating, Crabgrass, Large [7, 16]: 70 | Plant response rating, Morningglory [8, 14]: 90 | Morningglory plant response rating ([8]; Postemergence, 500 g ai/ha): 100 | Plant response rating, Morningglory [8, 15]: 70 | Plant response rating, Morningglory [8, 16]: 80 | Plant response rating, Foxtail, Giant [9, 14]: 40 | Foxtail, Giant plant response rating ([9]; Postemergence, 500 g ai/ha): 80 | Plant response rating, Foxtail, Giant [9, 15]: 10 | Plant response rating, Foxtail, Giant [9, 16]: 40 | Plant response rating, Barnyardgrass [10, 14]: 70 | Barnyardgrass plant response rating ([10]; Postemergence, 500 g ai/ha): 90 | Plant response rating, Barnyardgrass [10, 15]: 0 | Plant response rating, Barnyardgrass [10, 16]: 30
